This is an account of results in ChEMBL document CHEMBL5465560, “Selectivity Literature for EUbOPEN Chemogenomic Library” (2024).

The target in test [1] is T1, Serine/threonine-protein kinase haspin (Homo sapiens) (UniProt Q8TF76).
T1 sequence (whole entry): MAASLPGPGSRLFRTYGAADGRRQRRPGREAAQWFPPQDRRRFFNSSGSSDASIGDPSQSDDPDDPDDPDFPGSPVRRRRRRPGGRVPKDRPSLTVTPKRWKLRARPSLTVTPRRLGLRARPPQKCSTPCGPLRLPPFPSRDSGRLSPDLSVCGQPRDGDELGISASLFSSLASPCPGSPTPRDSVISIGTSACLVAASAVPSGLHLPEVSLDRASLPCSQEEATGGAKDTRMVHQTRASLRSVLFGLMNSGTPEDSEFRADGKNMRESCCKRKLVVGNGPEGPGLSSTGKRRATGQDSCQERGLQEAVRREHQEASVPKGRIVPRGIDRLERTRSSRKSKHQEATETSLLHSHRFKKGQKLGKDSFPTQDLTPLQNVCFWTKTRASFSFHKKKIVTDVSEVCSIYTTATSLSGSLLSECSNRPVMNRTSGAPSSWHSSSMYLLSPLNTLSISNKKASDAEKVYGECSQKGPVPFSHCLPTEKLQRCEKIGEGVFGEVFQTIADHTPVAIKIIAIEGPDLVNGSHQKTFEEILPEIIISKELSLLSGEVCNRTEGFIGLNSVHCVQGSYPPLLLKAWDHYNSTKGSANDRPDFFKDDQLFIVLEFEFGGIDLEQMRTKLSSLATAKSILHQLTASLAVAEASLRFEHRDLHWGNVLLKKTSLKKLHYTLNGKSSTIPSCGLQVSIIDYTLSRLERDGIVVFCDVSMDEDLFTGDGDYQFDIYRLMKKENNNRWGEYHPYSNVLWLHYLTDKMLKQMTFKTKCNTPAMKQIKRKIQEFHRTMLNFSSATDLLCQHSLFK
Nature of the test: Selectivity interaction (Ambit KINOMEscan and KiNATiv profiling in Jurkat cells) EUB0000090b GSG2. As to conditions: at 1 µM. It is filed as cell-based.

For test [2], the target named is T2, Mitogen-activated protein kinase kinase kinase 7 (Homo sapiens) (UniProt O43318).
T2 sequence (whole entry): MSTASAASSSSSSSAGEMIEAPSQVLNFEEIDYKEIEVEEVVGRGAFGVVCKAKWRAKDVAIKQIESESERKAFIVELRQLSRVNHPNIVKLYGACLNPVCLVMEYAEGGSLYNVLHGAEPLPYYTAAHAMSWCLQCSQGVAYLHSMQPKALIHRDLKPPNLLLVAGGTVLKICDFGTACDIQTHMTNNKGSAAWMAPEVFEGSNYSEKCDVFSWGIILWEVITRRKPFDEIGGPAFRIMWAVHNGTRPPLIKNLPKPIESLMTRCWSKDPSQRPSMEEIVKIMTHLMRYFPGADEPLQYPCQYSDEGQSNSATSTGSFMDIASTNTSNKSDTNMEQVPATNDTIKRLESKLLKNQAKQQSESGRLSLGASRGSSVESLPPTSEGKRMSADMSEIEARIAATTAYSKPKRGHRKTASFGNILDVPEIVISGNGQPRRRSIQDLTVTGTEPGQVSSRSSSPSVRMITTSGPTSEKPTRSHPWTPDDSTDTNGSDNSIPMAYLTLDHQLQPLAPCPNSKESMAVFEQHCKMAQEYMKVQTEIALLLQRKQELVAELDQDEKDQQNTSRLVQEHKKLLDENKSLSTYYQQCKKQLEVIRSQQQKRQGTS
As to conditions: at 10 µM.

The target in test [3] is T3, Activin receptor type-1B (Homo sapiens) (UniProt P36896).
T3 sequence (whole entry): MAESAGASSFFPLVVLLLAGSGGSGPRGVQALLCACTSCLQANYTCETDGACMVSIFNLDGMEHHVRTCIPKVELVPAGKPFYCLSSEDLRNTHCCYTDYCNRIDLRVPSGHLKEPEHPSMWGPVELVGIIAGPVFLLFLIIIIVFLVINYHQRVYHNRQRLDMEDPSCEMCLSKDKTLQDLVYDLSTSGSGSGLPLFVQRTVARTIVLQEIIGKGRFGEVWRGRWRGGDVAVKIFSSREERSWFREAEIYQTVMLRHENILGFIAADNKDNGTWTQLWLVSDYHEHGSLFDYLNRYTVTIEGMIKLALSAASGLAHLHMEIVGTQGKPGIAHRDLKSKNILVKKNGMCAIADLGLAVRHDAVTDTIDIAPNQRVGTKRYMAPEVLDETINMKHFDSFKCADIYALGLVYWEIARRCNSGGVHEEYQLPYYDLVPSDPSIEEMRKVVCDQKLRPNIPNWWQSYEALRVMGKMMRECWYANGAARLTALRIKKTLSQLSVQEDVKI
Nature of the test: Selectivity interaction (KinomeScan (DiscoverX)) EUB0000655a ACVR1B. Particulars: at 10 µM.

Test [4] concerns the target Protein kinase C theta type (Homo sapiens, UniProt Q04759). Nature of the test: Selectivity interaction (KinomeScan (DiscoverX)) EUB0001619a PRKCQ. Particulars: at 1 µM.
In test [5] the target is Tyrosine-protein kinase ABL1 (Homo sapiens, UniProt P00519). Nature of the test: Selectivity interaction (ActivX KiNativ screen (kinase selectivity in THP-1 cell lysates)) EUB0000639a ABL1. It counts as subcellular. As to conditions: lysate, at 0.04 µM.
For test [6], the target named is T4, Serine/threonine-protein kinase Nek3 (Homo sapiens) (UniProt P51956).
T4 sequence (whole entry): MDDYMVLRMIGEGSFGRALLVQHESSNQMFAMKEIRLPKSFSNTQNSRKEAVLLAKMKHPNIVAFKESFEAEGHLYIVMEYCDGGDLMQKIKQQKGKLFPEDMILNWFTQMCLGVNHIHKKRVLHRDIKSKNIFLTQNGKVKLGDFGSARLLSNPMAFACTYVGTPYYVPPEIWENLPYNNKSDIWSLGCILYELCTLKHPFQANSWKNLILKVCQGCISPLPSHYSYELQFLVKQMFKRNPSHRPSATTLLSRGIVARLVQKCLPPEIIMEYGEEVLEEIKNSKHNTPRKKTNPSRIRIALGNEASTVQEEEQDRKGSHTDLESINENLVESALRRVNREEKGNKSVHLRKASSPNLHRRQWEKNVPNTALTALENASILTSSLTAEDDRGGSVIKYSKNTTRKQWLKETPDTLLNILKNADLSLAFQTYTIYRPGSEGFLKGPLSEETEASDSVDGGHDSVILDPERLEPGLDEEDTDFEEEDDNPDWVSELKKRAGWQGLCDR
Nature of the test: Selectivity interaction (ActivX KiNativ screen (kinase selectivity in THP-1 cell lysates)) EUB0000639a NEK3. It counts as subcellular. As to conditions: lysate.

The target of test [7] is RAF proto-oncogene serine/threonine-protein kinase (Homo sapiens) (UniProt P04049). Nature of the test: Selectivity interaction (KinomeScan (DiscoverX)) EUB0000618a RAF1. As to conditions: at 10 µM.
Chain of RAF proto-oncogene serine/threonine-protein kinase (Homo sapiens) (P04049 whole entry): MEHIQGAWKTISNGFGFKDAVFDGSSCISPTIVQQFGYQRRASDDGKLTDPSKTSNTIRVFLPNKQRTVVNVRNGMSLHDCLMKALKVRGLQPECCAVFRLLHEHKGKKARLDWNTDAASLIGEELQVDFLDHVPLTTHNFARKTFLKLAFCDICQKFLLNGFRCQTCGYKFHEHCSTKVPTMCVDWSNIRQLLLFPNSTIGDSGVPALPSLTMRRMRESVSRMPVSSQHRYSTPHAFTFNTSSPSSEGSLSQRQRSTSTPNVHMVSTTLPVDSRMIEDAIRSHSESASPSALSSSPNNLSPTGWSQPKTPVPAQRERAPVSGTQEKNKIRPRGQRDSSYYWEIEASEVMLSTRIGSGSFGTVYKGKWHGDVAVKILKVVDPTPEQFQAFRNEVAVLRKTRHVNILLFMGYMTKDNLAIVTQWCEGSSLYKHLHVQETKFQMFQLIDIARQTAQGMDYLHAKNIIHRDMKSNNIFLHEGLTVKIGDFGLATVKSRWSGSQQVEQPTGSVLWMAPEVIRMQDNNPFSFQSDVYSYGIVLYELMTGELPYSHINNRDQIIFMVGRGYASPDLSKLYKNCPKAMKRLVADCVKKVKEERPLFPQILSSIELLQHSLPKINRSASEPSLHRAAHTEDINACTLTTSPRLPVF

Chain of Protein kinase C theta type (Q04759 whole entry, looked up): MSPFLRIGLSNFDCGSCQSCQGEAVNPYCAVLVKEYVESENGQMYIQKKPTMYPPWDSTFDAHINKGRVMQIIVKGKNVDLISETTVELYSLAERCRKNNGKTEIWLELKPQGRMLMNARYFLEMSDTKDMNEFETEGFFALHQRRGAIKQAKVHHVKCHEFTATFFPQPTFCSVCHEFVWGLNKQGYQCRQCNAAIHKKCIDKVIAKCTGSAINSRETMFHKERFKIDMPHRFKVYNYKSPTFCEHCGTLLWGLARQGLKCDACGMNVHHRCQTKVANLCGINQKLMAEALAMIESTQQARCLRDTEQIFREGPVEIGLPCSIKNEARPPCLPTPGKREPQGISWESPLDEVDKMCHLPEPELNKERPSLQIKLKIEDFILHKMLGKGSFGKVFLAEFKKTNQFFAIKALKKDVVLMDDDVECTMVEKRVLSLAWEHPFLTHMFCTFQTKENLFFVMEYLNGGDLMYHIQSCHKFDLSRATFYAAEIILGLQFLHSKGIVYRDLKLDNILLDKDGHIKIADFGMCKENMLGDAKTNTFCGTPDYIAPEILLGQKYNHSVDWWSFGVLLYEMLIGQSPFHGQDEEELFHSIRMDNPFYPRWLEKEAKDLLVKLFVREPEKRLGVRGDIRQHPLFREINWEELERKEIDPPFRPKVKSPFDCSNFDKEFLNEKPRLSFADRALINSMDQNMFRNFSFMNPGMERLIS
Chain of Tyrosine-protein kinase ABL1 (P00519 whole entry): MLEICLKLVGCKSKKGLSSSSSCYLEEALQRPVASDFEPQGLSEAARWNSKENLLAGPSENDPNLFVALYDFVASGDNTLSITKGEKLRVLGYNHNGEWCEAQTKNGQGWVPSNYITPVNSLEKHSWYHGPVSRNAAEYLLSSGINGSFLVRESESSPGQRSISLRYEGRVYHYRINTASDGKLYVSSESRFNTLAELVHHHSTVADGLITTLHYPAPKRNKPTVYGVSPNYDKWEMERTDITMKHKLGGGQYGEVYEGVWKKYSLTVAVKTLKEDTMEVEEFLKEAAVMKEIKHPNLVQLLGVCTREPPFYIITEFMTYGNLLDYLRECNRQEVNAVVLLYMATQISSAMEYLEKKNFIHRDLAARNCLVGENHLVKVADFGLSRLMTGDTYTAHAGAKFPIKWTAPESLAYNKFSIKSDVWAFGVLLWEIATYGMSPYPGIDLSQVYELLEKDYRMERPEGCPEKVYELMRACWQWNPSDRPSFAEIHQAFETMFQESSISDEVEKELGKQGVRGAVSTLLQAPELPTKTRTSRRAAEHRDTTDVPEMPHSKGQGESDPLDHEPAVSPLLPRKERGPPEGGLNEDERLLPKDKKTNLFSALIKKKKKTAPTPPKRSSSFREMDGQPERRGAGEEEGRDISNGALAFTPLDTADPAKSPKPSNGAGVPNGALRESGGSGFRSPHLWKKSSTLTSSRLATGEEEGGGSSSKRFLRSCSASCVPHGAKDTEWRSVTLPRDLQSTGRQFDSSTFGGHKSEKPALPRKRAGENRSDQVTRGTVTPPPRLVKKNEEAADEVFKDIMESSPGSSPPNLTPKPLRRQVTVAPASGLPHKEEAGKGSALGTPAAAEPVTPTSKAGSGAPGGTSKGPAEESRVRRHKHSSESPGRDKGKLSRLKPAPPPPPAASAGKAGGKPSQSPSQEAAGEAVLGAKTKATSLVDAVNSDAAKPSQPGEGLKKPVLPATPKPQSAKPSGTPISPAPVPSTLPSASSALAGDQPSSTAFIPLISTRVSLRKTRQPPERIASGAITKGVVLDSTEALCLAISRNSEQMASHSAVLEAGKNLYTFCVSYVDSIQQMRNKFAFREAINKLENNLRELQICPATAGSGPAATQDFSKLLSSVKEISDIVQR

Consider `CN(C)C/C=C/C(=O)Nc1ccc(C(=O)N2CCCC(Nc3ncc(Cl)c(-c4c[nH]c5ccccc45)n3)C2)cc1` (stereo unspecified), for which the % of control in test [1] was determined as 73%.

For `Cc1cc([C@@H](C)Nc2ccccc2C(=O)O)c2nc(N3CCOCC3)cc(=O)n2c1` [AZD-6482], the % of control in test [2] worked out at 89%.

In the case of `CN(C)CCOc1ccc(-c2nc(-c3ccncc3)c(-c3ccc4c(c3)CC/C4=N\O)[nH]2)cc1`, the % of control in test [3] turned out to be 40%.

The molecule `N#Cc1cccc(-c2c[nH]c3ncnc(N4CCOCC4)c23)c1` gave a % of control in test [4] of 77%.

Take `CC[C@@H]1[C@H](F)C(=O)N[C@@H]1COc1nccc2cc(C(N)=O)c(OC)cc12` [ZIMLOVISERTIB]: the % of inhibition in test [5] is -16.4%; in test [6] (at 0.01 µM), -5.8%; in test [6] (at 0.04 µM) it was -2.4%; in test [6] (at 0.2 µM), 6.9%; in test [6] (at 1 µM), -1.1%; in test [6] (at 5 µM) it was -11.5%.

For the molecule `O[C@H]1CC[C@H](Nc2ncc3nc(Nc4c(F)cc(F)cc4F)n([C@H]4CCOC4)c3n2)CC1`, in test [7], the % of control was 100%.
